In patent US20250186472A1, “COMBINATION OF POH AND REMDESIVIR FOR TREATMENT OF CNS INFECTIONS” (NeOnc Technologies, Inc., priority 2020, published 2025):
Entries after “also recorded” stand apart in the source; their conditions may differ.

Experiments:
GL261 mouse glioma [1] = assay: NEO100-mediated human CAR T cell delivery to brain and tumor (CD3 IHC); type: in vivo
Procedure: 2-million CD19 and Lym-1 human CAR T cells that were suspended in 0.9% saline working solution to be used for the IV injection with and without intracardiac NEO100.
Preparation of the working solution for intracardiac injection of NEO100: 3% NEO100 suspended in 0.9% saline.
40 μl 3% NEO100 in saline was injected slowly to complete intracardiac application. Direct cell injection into the heart could cause local microinfaractions if the cells are clumpy during injection, hemopericardium and death as a consequence. This is why ultrasound guided injections with a small 30 G needle is important to minimize these potential adverse effects, (1) enabling the visualization of the needle tract to ensure that the needle enters the left ventricle only, and (2) subsequent monitoring of the heart through not only ECG but visualization of heart wall function after the injection. The fine gauge of the needle ensures that the cells are not clumpy when the cells are injected through intracardiac puncture.
Immediate after the completion of NEO100 injection, 2 million human CAR T cells in 40 μl PBS were injected through tail vein catheter that pre-primed with saline solution. To avoid the possible adverse effects mentioned above by direct cell injection through intracardiac application, we set up 2-step procedures for the study.
Step 1: 40 μl 3% NEO100 in saline was injected slowly to complete intracardiac application. This procedure allows NEO100 to exert the function of BBB disruption.
Step 2:2-million CAR T cells were injected by IV through tail vein catheter.
Brain Perfusion—In order to rule out the residue left over inside the blood vessel after euthanizing, the testing animals were perfused by 10 ml 0.9% normal saline solution through left ventricle to flush out the blood.
Confocal Imaging—8 UM fresh frozen sections were made by cryostasis machine and pasted on microslide. Coverslip was mounted on the brain section by DAPI mounting medium before Confocal examination. […]

GL261 mouse glioma [2] = assay: Anti-mouse PD-1 antibody therapeutic efficacy (survival) in intracranial syngeneic glioma; type: in vivo, C57 BL/6 mice; settings: IC 40 μl 5% NEO100 and/or IV anti-PD1 2.5 mg/kg; treatment from day 7
Procedure: 100,000 GL261 mouse glioma cells were injected intracranially to immune competent mice, C57 BL/6. 7 days post the injection, the mice were randomly divided into 4 experimental groups, and initiated the treatment at the same day. • Group 1. Control: IV and Intracardiac injection of 40 μl Saline Solution (5). • Group 2. Antibody treated mice: IV 40 μl Anti-mouse PD1 antibody at the dose of 2.5 mg/kg (5). • Group 3. NEO100 treated mice: Intracardiac injection of 40 μl 5% NEO100(5). • Group 4. Combination of NEO100 and antibody treated mice: Intracardiac 40 μl 5% NEO100, followed by IV 40 μl Anti-PD1 antibody at the dose of 2.5 mg/kg (6).
Animal survival data were plotted using the Kaplan-Meier method. One-way ANOVA was used for the overall test for differences. Grouped comparisons were performed using the Tukey method of adjusting for multiple comparisons. Logrank (Mantel-Cox) test was applied for the comparison of survival curves. A statistical evaluation result of p<0.05 was considered significant. • Control vs IC NEO100+IV Anti-mouse PD-1: *** P<0.0003 • Control vs IV Anti-mouse PD-1: ns, p=0.31 • IV Anti-mouse PD-1 vs IC NEO100+IV Anti-mouse: ** P<0.005 • Control vs IC NEO100: ns, p=0.397

[3] = tested on: Madin-Darby Canine Kidney (MDCK) cells; assay: In vitro BBB tight junction model (Transwell, TEER, fluorescent antibody); type: cell-based
Procedure: The labelled components are Transwell chemotaxis chamber; upper chamber; porous membrane and lower chamber. Transwell culture chambers (pore size: 0.8 μm). Madin-Darby Canine Kidney (MDCK) cells are epithelial cells. TEER: transepithelial/transendothelial electrical resistance. Fluorescence Ab: Alexa Fluo®488; donkey anti-rat IgG (H+L). Fluorescence was measured in the lower chamber in about 120 minutes.

[4] = tested on: BBB in an in vitro BBB model; assay: In vitro BBB model, remdesivir transport across Transwell; type: cell-based; settings: POH 1.5 mM; POH-Remdesivir vs H2O-Remdesivir in upper chamber; 4 hours
Procedure: For the in vitro, cells were plated in the upper chamber of a Transwell. The POH-Remdesivir or H2O-Remdesivir mixture was placed in the upper chamber. POH was at a concentration of 1.5 mM. The media from both upper and lower chambers were collected after 4 hours and quantitated for remdesivir.

[5] = tested on: recurrent malignant gliomas; settings: intranasal delivery, cited from earlier work

Procedure for blood-brain-barrier: Brain Perfusion-Before euthanizing, the testing animals was perfused by 0.9% normal saline solution through left ventricle. The brain was removed and buried in OCT, and stored in −80° C. for further analysis.
Ultrasound Guided Intracardiac Puncture-Briefly, the animals were anesthetized using 2% isoflurane gas and fixed on the platform for intracardiac puncture. To penetrate the syringe needle into intercoastal space promptly through skin and muscle layers into the left ventricle under the guidance of ultrasound imaging. An indication of successful insertion of the needle into the left ventricle is the reflux of fresh arterial blood (pink color in contrast to dark red venous blood) into the syringe.
The extravasation of stained albumin from circulation could be visualized.
NEO100 was delivered via intra-cardiac injection (left ventricle) to determine if there is increased uptake of Evans Blue, a BBB nonpermeable small molecule (dopamine), or antibodies into the brain. […] Different concentration of NE0100 (40 μl in 0.9% saline) was tested through intracardiac puncture, followed by immediate intravenous application of 2% Evans Blue (40 μl in volume). The brain was removed after perfusion.
Experimental groups include: • IC 2% EB only • IC 20% ethanol+2% EB • IC 20% ethanol+2% EB+5% NEO100 • IC 20% ethanol+5% NEO100, followed by 2% EB tail vein injection • IV 20% ethanol+2% EB+5% NEO100 • IV 20% ethanol+2% EB
The immune competent C57 BL/6 mice was injected with 5% NEO100 (v/v) through intracardiac puncture (IC), followed by intravenous injection of 2% Evans Blue at different time points, such as 0, 5 min, 15 min, 30 min, 1-hour, 2-hour, 3-hour, and 4 hours, post the IC injection.
The experimental procedure included: • 1. Intracardiac Injection (IC): 5% NEO100. • 2. Followed by intravenous injection (IV) of 2% EB at different times. • 3. The testing animals were euthanized one hour after the IV injection.

For C=C(C)[C@@H]1CC=C(CO)CC1 [NEO100, perillyl alcohol], the “severe adverse effect or animal death” value (GL261 mouse glioma [1]; 3% NEO100 intracardiac injection, 40 μl) was “does not cause any severe adverse effect or animal death”, the “penetration of human CAR T cells into the tumor formed inside the brain” value (GL261 mouse glioma [1]; IC 3% NEO100 then IV 2 million anti-CD19 or Lym-1 CAR T cells, compared to IV only, 6 h) was “greatly increase the penetration” and the “CD3 positive cells in the normal parts of brain” value (GL261 mouse glioma [1]; IC NEO100 vs IV injection only samples) was “More CD3 positive cells”. For the same compound, the animal survival (GL261 mouse glioma [2]) was “dead”, the “penetration of fluorescence labelled antibody across in vitro BBB model” value ([3]; Alexa Fluor 488 donkey anti-rat IgG, lower chamber at about 120 minutes) was “transiently allow labeled antibodies to transiently cross it; also recorded: enhanced penetration” and the TEER ([3]; NEO100 2 mM) was “decreased”. The “delivery of remdesivir across the BBB” value [4] was “very efficient”, the “disturbance of the BBB (Evans Blue uptake into brain)” value (blood-brain-barrier; 1:1000 dilution (6.5 mM 40 μl) IC, then IV 2% Evans Blue) was “still effective to disturb the BBB” and the “dopamine delivery to brain” value (blood-brain-barrier; intracardiac NEO100) was “mediated dopamine delivery through the breached blood-brain-barrier”. The “opening of the BBB for antibodies” value (blood-brain-barrier; intracardiac injection (equivalent to intra-arterial injection for mice)) was “could open the BBB for antibodies”, the “tight junction in the brain” value (blood-brain-barrier; intracardiac injection of 5% NEO100 compared to normal brain) was “breached dramatically” and the “safety of intraarterial administration” value (blood-brain-barrier; mouse, in vivo) was “safe”. The “treated patients achieving 6 month progression-free period” value ([5]; 140 treated patients) was 50%, the “disease remission, several patients” value [5] was at most 3 years and the disease response [5] was “regression or stabilization of the disease”. For the same compound, the “side effects from the treatment” value [5] was “almost non-existent”.
